Test results: the supplement of paper PMC10307832

Assays:
Assay in all cases: relative viability (nuclei count vs DMSO), 5 days (fraction); higher = more cells survive
HCC-366 = test system: HCC-366
Method in brief: (§1)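 Medians of duplicate plates are given as relative viability. That measure is the nuclei count in treated wells divided by the count in vehicle wells. Counts were taken on 4× images of lung cancer cell lines in 1536-well plates, 5 days after pin-tool dosing the day after seeding with one drug alone or a fixed anchor-drug dose plus five library-drug doses (not always all listed) in √10 steps.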

NCI-H2405 = test system: NCI-H2405
Method in brief: as §1

BEN = test system: BEN
Method in brief: as §1

NCI-H1734 = test system: NCI-H1734
Method in brief: as §1

NCI-H2087 = test system: NCI-H2087
Method in brief: as §1

NCI-H2009 = test system: NCI-H2009
Method in brief: as §1

SK-LU-1 = test system: SK-LU-1
Method in brief: as §1

HARA = test system: HARA
Method in brief: as §1

NCI-H1437 = test system: NCI-H1437
Method in brief: as §1

NCI-H522 = test system: NCI-H522
Method in brief: as §1

SK-MES-1 = test system: SK-MES-1
Method in brief: as §1

NCI-H1993 = test system: NCI-H1993
Method in brief: as §1

NCI-H1355 = test system: NCI-H1355
Method in brief: as §1

NCI-H2170 = test system: NCI-H2170
Method in brief: as §1

EKVX = test system: EKVX
Method in brief: as §1

NCI-H2342 = test system: NCI-H2342
Method in brief: as §1

NCI-H1395 = test system: NCI-H1395
Method in brief: as §1

LOU-NH91 = test system: LOU-NH91
Method in brief: as §1

HCC-827 = test system: HCC-827
Method in brief: as §1

NCI-H647 = test system: NCI-H647
Method in brief: as §1

NCI-H661 = test system: NCI-H661
Method in brief: as §1

Compound: CC(=O)O[C@@]12CO[C@@H]1C[C@H](O)[C@@]1(C)C(=O)[C@H](O)C3=C(C)[C@@H](OC(=O)[C@H](O)[C@@H](NC(=O)OC(C)(C)C)c4ccccc4)C[C@@](O)([C@@H](OC(=O)c4ccccc4)[C@H]21)C3(C)C [Docetaxel] + O=C(CCCCCCC(=O)Nc1ccccc1)NO [Vorinostat] (partner 1 µM)
- relative viability (HCC-366; first compound 0.0002 µM): 0.299
- relative viability (HCC-366; first compound 0.000632 µM): 0.0824
- relative viability (HCC-366; first compound 0.002 µM): 0.0503
- relative viability (HCC-366; first compound 0.006325 µM): 0.0366
- relative viability (HCC-366; first compound 0.02 µM): 0.0211
- relative viability (NCI-H2405; first compound 0.0002 µM): 0.839
- relative viability (NCI-H2405; first compound 0.000632 µM): 0.567
- relative viability (NCI-H2405; first compound 0.002 µM): 0.546
- relative viability (NCI-H2405; first compound 0.006325 µM): 0.394
- relative viability (NCI-H2405; first compound 0.02 µM): 0.335
- relative viability (BEN; first compound 0.0002 µM): 0.526
- relative viability (BEN; first compound 0.000632 µM): 0.526
- relative viability (BEN; first compound 0.002 µM): 0.337
- relative viability (BEN; first compound 0.006325 µM): 0.373
- relative viability (BEN; first compound 0.02 µM): 0.299
- relative viability (NCI-H1734; first compound 0.0002 µM): 0.618
- relative viability (NCI-H1734; first compound 0.000632 µM): 0.506
- relative viability (NCI-H1734; first compound 0.002 µM): 0.304
- relative viability (NCI-H1734; first compound 0.006325 µM): 0.328
- relative viability (NCI-H1734; first compound 0.02 µM): 0.207
- relative viability (NCI-H2087; first compound 0.0002 µM): 0.663
- relative viability (NCI-H2087; first compound 0.000632 µM): 0.203
- relative viability (NCI-H2087; first compound 0.002 µM): 0.139
- relative viability (NCI-H2087; first compound 0.006325 µM): 0.115
- relative viability (NCI-H2087; first compound 0.02 µM): 0.103
- relative viability (NCI-H2009; first compound 0.0002 µM): 0.714
- relative viability (NCI-H2009; first compound 0.000632 µM): 0.715
- relative viability (NCI-H2009; first compound 0.002 µM): 0.707
- relative viability (NCI-H2009; first compound 0.006325 µM): 0.301
- relative viability (NCI-H2009; first compound 0.02 µM): 0.176
- relative viability (SK-LU-1; first compound 0.0002 µM): 0.754
- relative viability (SK-LU-1; first compound 0.000632 µM): 0.537
- relative viability (SK-LU-1; first compound 0.002 µM): 0.38
- relative viability (SK-LU-1; first compound 0.006325 µM): 0.349
- relative viability (SK-LU-1; first compound 0.02 µM): 0.226
- relative viability (HARA; first compound 0.0002 µM): 0.5
- relative viability (HARA; first compound 0.000632 µM): 0.219
- relative viability (HARA; first compound 0.002 µM): 0.148
- relative viability (HARA; first compound 0.006325 µM): 0.215
- relative viability (HARA; first compound 0.02 µM): 0.0839
- relative viability (NCI-H1437; first compound 0.0002 µM): 0.838
- relative viability (NCI-H1437; first compound 0.000632 µM): 0.522
- relative viability (NCI-H1437; first compound 0.002 µM): 0.553
- relative viability (NCI-H1437; first compound 0.006325 µM): 0.275
- relative viability (NCI-H1437; first compound 0.02 µM): 0.185
- relative viability (NCI-H522; first compound 0.0002 µM): 0.852
- relative viability (NCI-H522; first compound 0.000632 µM): 0.899
- relative viability (NCI-H522; first compound 0.002 µM): 0.713
- relative viability (NCI-H522; first compound 0.006325 µM): 0.516
- relative viability (NCI-H522; first compound 0.02 µM): 0.344
- relative viability (SK-MES-1; first compound 0.0002 µM): 1.15
- relative viability (SK-MES-1; first compound 0.000632 µM): 0.925
- relative viability (SK-MES-1; first compound 0.002 µM): 0.695
- relative viability (SK-MES-1; first compound 0.006325 µM): 0.267
- relative viability (SK-MES-1; first compound 0.02 µM): 0.212
- relative viability (NCI-H1993; first compound 0.0002 µM): 0.594
- relative viability (NCI-H1993; first compound 0.000632 µM): 0.499
- relative viability (NCI-H1993; first compound 0.002 µM): 0.376
- relative viability (NCI-H1993; first compound 0.006325 µM): 0.392
- relative viability (NCI-H1993; first compound 0.02 µM): 0.246
- relative viability (NCI-H1355; first compound 0.0002 µM): 0.631
- relative viability (NCI-H1355; first compound 0.000632 µM): 0.626
- relative viability (NCI-H1355; first compound 0.002 µM): 0.382
- relative viability (NCI-H1355; first compound 0.006325 µM): 0.244
- relative viability (NCI-H1355; first compound 0.02 µM): 0.176
- relative viability (NCI-H2170; first compound 0.0002 µM): 0.787
- relative viability (NCI-H2170; first compound 0.000632 µM): 0.551
- relative viability (NCI-H2170; first compound 0.002 µM): 0.388
- relative viability (NCI-H2170; first compound 0.006325 µM): 0.162
- relative viability (NCI-H2170; first compound 0.02 µM): 0.136
- relative viability (EKVX; first compound 0.0002 µM): 0.638
- relative viability (EKVX; first compound 0.000632 µM): 0.6
- relative viability (EKVX; first compound 0.002 µM): 0.428
- relative viability (EKVX; first compound 0.006325 µM): 0.29
- relative viability (EKVX; first compound 0.02 µM): 0.229
- relative viability (NCI-H2342; first compound 0.0002 µM): 0.625
- relative viability (NCI-H2342; first compound 0.000632 µM): 0.662
- relative viability (NCI-H2342; first compound 0.002 µM): 0.569
- relative viability (NCI-H2342; first compound 0.006325 µM): 0.445
- relative viability (NCI-H2342; first compound 0.02 µM): 0.475
- relative viability (NCI-H1395; first compound 0.0002 µM): 0.672
- relative viability (NCI-H1395; first compound 0.000632 µM): 0.601
- relative viability (NCI-H1395; first compound 0.002 µM): 0.462
- relative viability (NCI-H1395; first compound 0.006325 µM): 0.375
- relative viability (NCI-H1395; first compound 0.02 µM): 0.239
- relative viability (LOU-NH91; first compound 0.0002 µM): 0.873
- relative viability (LOU-NH91; first compound 0.000632 µM): 0.628
- relative viability (LOU-NH91; first compound 0.002 µM): 0.436
- relative viability (LOU-NH91; first compound 0.006325 µM): 0.397
- relative viability (LOU-NH91; first compound 0.02 µM): 0.347
- relative viability (HCC-827; first compound 0.0002 µM): 0.367
- relative viability (HCC-827; first compound 0.000632 µM): 0.903
- relative viability (HCC-827; first compound 0.002 µM): 0.528
- relative viability (HCC-827; first compound 0.006325 µM): 0.279
- relative viability (HCC-827; first compound 0.02 µM): 0.238
- relative viability (NCI-H647; first compound 0.0002 µM): 0.486
- relative viability (NCI-H647; first compound 0.000632 µM): 0.32
- relative viability (NCI-H647; first compound 0.002 µM): 0.196
- relative viability (NCI-H647; first compound 0.006325 µM): 0.14
- relative viability (NCI-H647; first compound 0.02 µM): 0.082
- relative viability (NCI-H661; first compound 0.0002 µM): 0.777
- relative viability (NCI-H661; first compound 0.000632 µM): 0.856
- relative viability (NCI-H661; first compound 0.002 µM): 0.728
- relative viability (NCI-H661; first compound 0.006325 µM): 0.493
- relative viability (NCI-H661; first compound 0.02 µM): 0.373
